This is an account of results in patent US20140066465A1, “CANCER TREATMENT USING TYROSINE KINASE AND NF-kB INHIBITORS” (The Cleveland Clinic Foundation, priority 2012, published 2014).

Data set [1] deals with erlotinib-resistant NSCLC cell lines (A549, H1975, and H1993). The data set can be described thus: cells. The method, then:
Erlotinib-resistance NSCLC cell lines A549, H1975, and H1993 were used.
(§1) The cells were plated in 96-well plates at 2500-3000 cells per well, and allowed to attach overnight, with 6 replicates being used for each dose. First, the inventors detected the IC50 with single drug treatment for each cell line.

The next data set concerns sensitive cell lines. The data set can be described thus: MTT cell survival assay, single drug. Format: cell-based. To be noted: single drug treatment. As for the experimental part:
as §1

For data set [2] the following is noted: in vivo; cited from earlier work.
The target of another data set is CYP3A4 (Homo sapiens, UniProt P08684). To be noted: cited from earlier work.
For a further data set, the system named is H1975 cells. The data set can be described thus: PARP cleavage Western blot. Format: cell-based. To be noted: 5 μM quinacrine, time course. In general terms: A western blot detects proteins with antibodies after separation by electrophoresis.
In data set [3] the test system is NF-κB. As for the experimental part:
For the NF-κB luciferase assay, A549 or H1975 cells were infected with the κB-luciferse construct PLANFκBluc and stably selected with puromycin or hygromycin. The reporter cells were then seeded in 96-well plates at 1-2×10^3 per well, allowed to attach overnight, and then treated with drugs and/or interleukin-1 for four hours. Cells were then harvested in reporter lysis buffer (Promega) and assayed for luciferase activity using the luciferase assay system (Promega).

The subject of data set [4] is NF-κB. To be noted: A549 or H1975 reporter cells; pretreated, then interleukin-1 for 6 h. As for the experimental part: The reporter cells were then seeded in 96-well plates at 1-2×10^3 per well, allowed to attach overnight, and then treated with drugs and/or IL-1. Cells were then harvested in reporter lysis buffer (Promega) and assayed for luciferase activity using the luciferase assay system (Promega).

Data set [5] relates to xenograft tumors originating from human renal cell carcinoma. To be noted: mice; cited from earlier work.

CYP3A4, sequence (P08684 whole entry): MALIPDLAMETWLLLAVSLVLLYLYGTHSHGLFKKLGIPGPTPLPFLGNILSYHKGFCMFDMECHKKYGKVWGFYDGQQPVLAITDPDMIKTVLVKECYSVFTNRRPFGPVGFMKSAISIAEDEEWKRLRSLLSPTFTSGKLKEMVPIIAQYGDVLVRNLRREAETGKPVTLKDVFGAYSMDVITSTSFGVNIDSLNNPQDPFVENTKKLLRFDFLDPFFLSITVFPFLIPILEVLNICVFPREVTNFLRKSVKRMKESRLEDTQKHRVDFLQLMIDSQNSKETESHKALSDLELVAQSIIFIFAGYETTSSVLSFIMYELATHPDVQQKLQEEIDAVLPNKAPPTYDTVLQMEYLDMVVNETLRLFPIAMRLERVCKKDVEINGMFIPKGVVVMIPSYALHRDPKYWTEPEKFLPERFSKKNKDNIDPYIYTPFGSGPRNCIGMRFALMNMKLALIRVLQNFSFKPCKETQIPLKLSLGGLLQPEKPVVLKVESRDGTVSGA

Take `C#Cc1cccc(Nc2ncnc3cc(OCCOC)c(OCCOC)cc23)c1` [erlotinib]: the IC50 is 10000 to 20000 nM in data set [1] and around 20 nM in the data set with sensitive cell lines. In data set [2], the half life result was “about 36 hours”. Moreover, on CYP3A4, the route of clearance entry is on record as “cleared predominantly by CYP3A4 methabolism”.
Turning to `CCN(CC)CCCC(C)Nc1c2ccc(Cl)cc2nc2ccc(OC)cc12` (stereo not shown) [quinacrine], the IC50 in data set [1] lay within 1000 to 2000 nM. The “Apoptosis by PARP cleavage” value with H1975 cells was “time-dependent increase of PARP cleavage”. The “NF-κB-dependent luciferase reporter activity” value with NF-κB [3] (A549 or H1975 reporter cells, 4 h treatment, relative to untreated control) is listed as “suppresses NF-κB-dependent luciferase reporter activity”. Further, in the data set on NF-κB [3] (general statement of the inventors), the NF-κB activity result was “profoundly suppresses NF-κB activity”. Moreover, in the data set with NF-κB [4], the “IL-1-induced NF-κB-dependent luciferase reporter activity” value is listed as “suppresses interleukin-1 (IL-1)-induced NF-κB-dependent luciferase reporting activity”. Moreover, the anti-tumor effect entry in data set [5] is “anti-tumor effect”.

One may read the IC50 as the midpoint of a concentration-inhibition curve. A high value points to weaker potency in that assay.
